In the kinase profiling compilation of Christmann-Franck et al. (2016):

Experiments:
Experiment in all cases: KINOMEscan competition binding
LCK (human) = LCK (human) (UniProt P06239)
[1] = target: ABL1 (human), P00519 [M351T]
CLK3 (human) = CLK3 (human) (UniProt P49761)
RIPK2 (human) = RIPK2 (human) (UniProt O43353)
EPHA7 (human) = EPHA7 (human) (UniProt Q15375)
PAK7 (human) = PAK7 (human) (UniProt Q9P286)
KDR (human) = KDR (human) (UniProt P35968)
EPHA5 (human) = EPHA5 (human) (UniProt P54756)
MAP3K5 (human) = MAP3K5 (human) (UniProt Q99683)
PAK4 (human) = PAK4 (human) (UniProt O96013)
CLK1 (human) = CLK1 (human) (UniProt P49759)
[2] = target: JAK2 JH2 pseudokinase (human) (UniProt O60674)
YES1 (human) = YES1 (human) (UniProt P07947)
NTRK1 (human) = NTRK1 (human) (UniProt P04629)
NEK2 (human) = NEK2 (human) (UniProt P51955)
PTK6 (human) = PTK6 (human) (UniProt Q13882)
EPHB1 (human) = EPHB1 (human) (UniProt P54762)
FGFR3 (human) = FGFR3 (human) (UniProt P22607)
PIM1 (human) = PIM1 (human) (UniProt P11309)
KIT (human) = KIT (human) (UniProt P10721)
[3] = target: ABL1 (human), P00519 [H396P]
FGR (human) = FGR (human) (UniProt P09769)
TNK2 (human) = TNK2 (human) (UniProt Q07912)
CAMK2G (human) = CAMK2G (human) (UniProt Q13555)
PRKAA1 (human) = PRKAA1 (human) (UniProt Q13131)
[4] = target: ABL1 (human), P00519 [E255K]
NEK6 (human) = NEK6 (human) (UniProt Q9HC98)
MYLK2 (human) = MYLK2 (human) (UniProt Q9H1R3)
EPHA4 (human) = EPHA4 (human) (UniProt P54764)
FLT3 (human) = FLT3 (human) (UniProt P36888)
PLK4 (human) = PLK4 (human) (UniProt O00444)
MAP4K5 (human) = MAP4K5 (human) (UniProt Q9Y4K4)
RPS6KA2 KD1 (human) = RPS6KA2 KD1 (human) (UniProt Q15349)
DAPK3 (human) = DAPK3 (human) (UniProt O43293)
ULK3 (human) = ULK3 (human) (UniProt Q6PHR2)
EPHA3 (human) = EPHA3 (human) (UniProt P29320)
TTK (human) = TTK (human) (UniProt P33981)
CLK2 (human) = CLK2 (human) (UniProt P49760)
CDK2 (human) = CDK2 (human) (UniProt P24941)
STK17A (human) = STK17A (human) (UniProt Q9UEE5)
STK4 (human) = STK4 (human) (UniProt Q13043)
RPS6KA5 KD1 (human) = RPS6KA5 KD1 (human) (UniProt O75582)

Measured: Kd

Chain of EPHA7 (human) (Q15375 whole entry, looked up): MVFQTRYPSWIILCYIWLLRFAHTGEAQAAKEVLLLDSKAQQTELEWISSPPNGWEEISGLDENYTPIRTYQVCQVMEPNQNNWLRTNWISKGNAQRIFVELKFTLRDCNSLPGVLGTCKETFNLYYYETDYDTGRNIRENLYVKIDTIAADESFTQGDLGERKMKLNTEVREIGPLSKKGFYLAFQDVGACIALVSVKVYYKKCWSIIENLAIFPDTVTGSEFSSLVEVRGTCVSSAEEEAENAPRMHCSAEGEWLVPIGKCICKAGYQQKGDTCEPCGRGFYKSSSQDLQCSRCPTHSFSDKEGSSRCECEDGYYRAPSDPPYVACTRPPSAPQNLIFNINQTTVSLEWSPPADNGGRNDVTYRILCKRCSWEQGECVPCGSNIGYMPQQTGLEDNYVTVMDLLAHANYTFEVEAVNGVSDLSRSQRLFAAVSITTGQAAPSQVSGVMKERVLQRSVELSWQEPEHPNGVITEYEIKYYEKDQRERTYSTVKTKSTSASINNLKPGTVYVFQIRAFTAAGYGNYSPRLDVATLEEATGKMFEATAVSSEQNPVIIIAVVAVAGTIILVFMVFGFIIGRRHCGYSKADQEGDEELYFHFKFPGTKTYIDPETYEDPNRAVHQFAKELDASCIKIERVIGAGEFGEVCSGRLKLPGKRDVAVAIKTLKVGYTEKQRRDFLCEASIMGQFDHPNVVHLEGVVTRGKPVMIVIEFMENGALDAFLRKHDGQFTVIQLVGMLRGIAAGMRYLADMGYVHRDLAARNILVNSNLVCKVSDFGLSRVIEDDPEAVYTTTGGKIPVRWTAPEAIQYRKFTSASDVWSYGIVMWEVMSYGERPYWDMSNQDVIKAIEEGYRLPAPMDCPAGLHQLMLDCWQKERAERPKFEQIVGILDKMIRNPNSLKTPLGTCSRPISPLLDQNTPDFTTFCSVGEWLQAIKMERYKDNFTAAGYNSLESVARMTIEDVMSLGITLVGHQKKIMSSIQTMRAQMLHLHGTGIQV
Chain of PIM1 (human) (P11309 whole entry, looked up): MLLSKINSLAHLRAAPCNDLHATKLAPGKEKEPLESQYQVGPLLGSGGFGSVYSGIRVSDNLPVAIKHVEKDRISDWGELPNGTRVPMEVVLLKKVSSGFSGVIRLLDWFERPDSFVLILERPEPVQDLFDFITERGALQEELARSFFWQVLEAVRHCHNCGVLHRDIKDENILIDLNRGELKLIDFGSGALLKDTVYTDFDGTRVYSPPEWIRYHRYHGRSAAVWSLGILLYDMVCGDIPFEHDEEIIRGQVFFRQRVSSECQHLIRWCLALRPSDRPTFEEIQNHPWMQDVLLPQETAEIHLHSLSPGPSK
Chain of LCK (human) (P06239 whole entry, looked up): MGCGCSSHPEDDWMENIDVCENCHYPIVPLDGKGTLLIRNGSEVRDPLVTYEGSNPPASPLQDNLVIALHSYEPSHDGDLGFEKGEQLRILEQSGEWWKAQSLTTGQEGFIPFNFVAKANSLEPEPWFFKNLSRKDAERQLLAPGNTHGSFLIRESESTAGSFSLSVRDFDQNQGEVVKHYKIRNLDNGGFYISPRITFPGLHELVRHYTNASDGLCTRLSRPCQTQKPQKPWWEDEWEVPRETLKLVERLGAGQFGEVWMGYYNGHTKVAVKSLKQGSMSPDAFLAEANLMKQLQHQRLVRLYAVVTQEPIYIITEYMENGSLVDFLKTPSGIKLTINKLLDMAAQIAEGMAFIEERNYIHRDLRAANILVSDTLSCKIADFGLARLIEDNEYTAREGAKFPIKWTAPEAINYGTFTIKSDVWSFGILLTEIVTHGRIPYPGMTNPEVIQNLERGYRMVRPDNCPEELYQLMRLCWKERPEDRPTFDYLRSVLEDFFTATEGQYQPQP
Chain of EPHA5 (human) (P54756 whole entry, looked up): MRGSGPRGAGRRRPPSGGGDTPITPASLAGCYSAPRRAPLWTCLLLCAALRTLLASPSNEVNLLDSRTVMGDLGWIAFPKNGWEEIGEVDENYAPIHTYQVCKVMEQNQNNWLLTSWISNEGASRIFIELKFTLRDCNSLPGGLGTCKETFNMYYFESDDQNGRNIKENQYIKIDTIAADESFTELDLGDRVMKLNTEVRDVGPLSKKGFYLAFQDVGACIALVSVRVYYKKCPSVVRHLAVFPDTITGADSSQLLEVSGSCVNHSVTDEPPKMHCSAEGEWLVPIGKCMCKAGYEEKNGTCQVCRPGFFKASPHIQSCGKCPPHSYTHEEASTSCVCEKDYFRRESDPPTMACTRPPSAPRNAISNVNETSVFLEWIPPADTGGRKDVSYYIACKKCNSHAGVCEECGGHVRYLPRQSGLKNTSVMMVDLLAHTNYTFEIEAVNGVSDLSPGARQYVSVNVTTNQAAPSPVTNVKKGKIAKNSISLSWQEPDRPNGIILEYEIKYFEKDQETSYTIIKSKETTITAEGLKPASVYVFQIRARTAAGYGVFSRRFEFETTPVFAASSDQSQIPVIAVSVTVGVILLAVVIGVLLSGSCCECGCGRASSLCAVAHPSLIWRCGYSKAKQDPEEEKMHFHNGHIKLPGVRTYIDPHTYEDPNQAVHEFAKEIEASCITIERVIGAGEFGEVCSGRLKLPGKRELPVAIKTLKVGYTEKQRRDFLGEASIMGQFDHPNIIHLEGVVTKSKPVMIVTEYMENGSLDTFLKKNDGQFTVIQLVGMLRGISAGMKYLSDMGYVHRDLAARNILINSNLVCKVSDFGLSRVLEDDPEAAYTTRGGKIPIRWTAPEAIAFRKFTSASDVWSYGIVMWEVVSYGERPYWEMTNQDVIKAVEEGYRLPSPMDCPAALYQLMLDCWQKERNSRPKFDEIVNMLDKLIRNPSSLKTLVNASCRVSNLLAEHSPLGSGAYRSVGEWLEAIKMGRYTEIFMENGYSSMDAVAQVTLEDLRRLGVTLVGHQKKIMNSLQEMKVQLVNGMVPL
Chain of CAMK2G (human) (Q13555 whole entry, looked up): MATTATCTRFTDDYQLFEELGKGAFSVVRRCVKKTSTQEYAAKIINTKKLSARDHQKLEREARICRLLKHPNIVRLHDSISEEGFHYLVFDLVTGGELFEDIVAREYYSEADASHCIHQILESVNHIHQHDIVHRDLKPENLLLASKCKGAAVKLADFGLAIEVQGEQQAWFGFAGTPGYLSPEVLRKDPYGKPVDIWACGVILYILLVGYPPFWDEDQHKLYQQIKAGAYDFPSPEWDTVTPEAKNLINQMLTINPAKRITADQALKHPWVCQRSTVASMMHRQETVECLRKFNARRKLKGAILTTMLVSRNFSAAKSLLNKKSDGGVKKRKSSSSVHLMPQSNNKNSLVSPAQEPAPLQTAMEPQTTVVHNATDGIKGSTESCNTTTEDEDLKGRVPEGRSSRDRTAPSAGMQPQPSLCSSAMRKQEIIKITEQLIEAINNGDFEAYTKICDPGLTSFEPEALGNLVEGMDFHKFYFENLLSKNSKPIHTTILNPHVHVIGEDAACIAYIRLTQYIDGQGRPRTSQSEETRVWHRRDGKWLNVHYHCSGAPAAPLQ
Chain of FGFR3 (human) (P22607 whole entry, looked up): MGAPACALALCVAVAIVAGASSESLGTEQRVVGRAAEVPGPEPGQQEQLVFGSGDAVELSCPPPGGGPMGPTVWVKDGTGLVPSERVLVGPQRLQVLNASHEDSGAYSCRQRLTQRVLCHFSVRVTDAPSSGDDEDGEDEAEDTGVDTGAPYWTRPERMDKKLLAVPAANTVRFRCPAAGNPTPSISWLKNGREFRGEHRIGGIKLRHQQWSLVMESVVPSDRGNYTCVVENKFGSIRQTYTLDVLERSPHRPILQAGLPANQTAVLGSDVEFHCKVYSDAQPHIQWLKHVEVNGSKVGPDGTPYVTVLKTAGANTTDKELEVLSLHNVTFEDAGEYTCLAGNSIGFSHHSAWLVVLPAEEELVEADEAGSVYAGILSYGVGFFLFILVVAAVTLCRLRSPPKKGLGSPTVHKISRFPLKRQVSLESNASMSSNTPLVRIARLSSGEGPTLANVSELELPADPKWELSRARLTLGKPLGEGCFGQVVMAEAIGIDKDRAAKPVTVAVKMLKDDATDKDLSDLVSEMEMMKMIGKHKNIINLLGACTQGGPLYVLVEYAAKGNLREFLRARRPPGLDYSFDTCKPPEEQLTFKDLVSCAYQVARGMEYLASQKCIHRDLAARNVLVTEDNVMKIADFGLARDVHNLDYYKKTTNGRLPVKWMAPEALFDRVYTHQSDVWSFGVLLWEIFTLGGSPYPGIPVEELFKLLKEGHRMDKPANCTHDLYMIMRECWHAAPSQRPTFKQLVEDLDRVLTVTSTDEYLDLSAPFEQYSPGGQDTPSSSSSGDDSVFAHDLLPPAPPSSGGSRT
Chain of NTRK1 (human) (P04629 whole entry, looked up): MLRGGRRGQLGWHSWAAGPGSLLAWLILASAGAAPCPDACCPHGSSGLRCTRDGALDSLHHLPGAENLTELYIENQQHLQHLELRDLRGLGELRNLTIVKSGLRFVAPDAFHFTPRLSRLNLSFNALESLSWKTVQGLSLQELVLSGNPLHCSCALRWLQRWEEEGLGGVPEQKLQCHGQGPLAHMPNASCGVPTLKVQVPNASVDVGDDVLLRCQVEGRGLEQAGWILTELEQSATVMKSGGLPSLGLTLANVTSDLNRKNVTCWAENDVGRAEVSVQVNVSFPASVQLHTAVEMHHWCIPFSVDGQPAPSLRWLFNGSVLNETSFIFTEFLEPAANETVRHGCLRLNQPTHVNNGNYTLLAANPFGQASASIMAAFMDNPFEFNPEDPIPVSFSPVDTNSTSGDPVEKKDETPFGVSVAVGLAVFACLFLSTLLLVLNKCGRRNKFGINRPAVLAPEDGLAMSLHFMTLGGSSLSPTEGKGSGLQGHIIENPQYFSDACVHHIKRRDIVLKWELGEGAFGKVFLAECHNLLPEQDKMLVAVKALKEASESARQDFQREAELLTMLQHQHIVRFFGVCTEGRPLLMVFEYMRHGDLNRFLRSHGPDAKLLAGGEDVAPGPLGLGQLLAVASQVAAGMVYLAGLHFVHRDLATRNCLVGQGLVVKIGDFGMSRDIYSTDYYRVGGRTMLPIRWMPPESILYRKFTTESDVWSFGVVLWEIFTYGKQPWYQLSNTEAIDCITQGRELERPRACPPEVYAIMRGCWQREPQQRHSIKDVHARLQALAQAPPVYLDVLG

O=C1c2ccccc2-c2n[nH]c3cccc1c23
not listed: PLK4 (human) | MAP4K5 (human) | RPS6KA2 KD1 (human) | DAPK3 (human) | ULK3 (human) | EPHA3 (human) | TTK (human) | CLK2 (human) | CDK2 (human) | STK17A (human) | STK4 (human) | RPS6KA5 KD1 (human)
> 10 µM: all other assays above

Oc1ccc(-c2nc(-c3ccc(F)cc3)c(-c3ccncc3)[nH]2)cc1
not listed: RIPK2 (human) | PTK6 (human)
> 10 µM: all other assays above
